Measured values reported in the NIST ThermoML archive (doi:10.1021/je700021f).
± gives the expanded uncertainty stated by the source.

Experiment: xn = mol fraction of the nth substance listed
Conditions: 101 kPa, Liquid, Pulse-echo method

CCCCCCCCCCl [1-chlorononane] + CCCCCCCCC
speed of sound [m/s]
Conditions	x2 = 0	x2 = 0.1	x2 = 0.3	x2 = 0.5	x2 = 0.7	x2 = 0.8	x2 = 0.85	x2 = 0.9
358.15 K	–	–	–	–	994.9 ± 2.9	982.6 ± 2.9	981 ± 2.9	976.3 ± 2.9
363.15 K	1048.5 ± 3	1029.5 ± 2.9	1009.6 ± 2.9	994.7 ± 2.9	976.8 ± 2.9	964.2 ± 2.8	962.4 ± 2.8	957.8 ± 2.8
368.15 K	1032.2 ± 2.9	1012.3 ± 2.9	992.2 ± 2.9	976.9 ± 2.9	958.9 ± 2.8	945.8 ± 2.8	943.9 ± 2.8	939.2 ± 2.8
373.15 K	1015.9 ± 2.9	995.2 ± 2.9	974.9 ± 2.9	959.2 ± 2.8	941.1 ± 2.8	927.7 ± 2.8	925.5 ± 2.8	920.7 ± 2.8
378.15 K	999.1 ± 2.9	978.3 ± 2.9	957.8 ± 2.8	941.6 ± 2.8	923.5 ± 2.8	909.6 ± 2.8	907.2 ± 2.8	902.3 ± 2.8
383.15 K	982.7 ± 2.9	961.5 ± 2.8	940.8 ± 2.8	924.1 ± 2.8	906 ± 2.8	891.6 ± 2.7	889 ± 2.7	883.9 ± 2.7
388.15 K	966.4 ± 2.8	944.8 ± 2.8	924 ± 2.8	906.7 ± 2.8	888.7 ± 2.7	873.8 ± 2.7	870.9 ± 2.7	865.6 ± 2.7
393.15 K	950.3 ± 2.8	928.3 ± 2.8	907.3 ± 2.8	889.4 ± 2.7	871.5 ± 2.7	856.1 ± 2.7	852.9 ± 2.7	847.3 ± 2.7
398.15 K	934.3 ± 2.8	911.8 ± 2.8	890.7 ± 2.7	872.1 ± 2.7	854.5 ± 2.7	838.5 ± 2.7	835 ± 2.7	829.1 ± 2.7
403.15 K	918.4 ± 2.8	895.5 ± 2.7	874.3 ± 2.7	855 ± 2.7	837.6 ± 2.7	821 ± 2.7	817.2 ± 2.6	810.9 ± 2.6
408.15 K	902.6 ± 2.8	879.3 ± 2.7	858 ± 2.7	838 ± 2.7	820.9 ± 2.6	803.6 ± 2.6	799.5 ± 2.6	792.7 ± 2.6
413.15 K	887 ± 2.7	863.3 ± 2.7	841.9 ± 2.7	821.1 ± 2.6	804.3 ± 2.6	786.3 ± 2.6	781.9 ± 2.6	774.6 ± 2.6
418.15 K	871.4 ± 2.7	847.4 ± 2.7	825.9 ± 2.7	804.3 ± 2.6	787.8 ± 2.6	769.2 ± 2.6	764.4 ± 2.6	756.6 ± 2.6
423.15 K	856 ± 2.7	831.5 ± 2.6	810 ± 2.6	787.5 ± 2.6	771.6 ± 2.6	752.2 ± 2.6	747 ± 2.6	738.6 ± 2.5
